Experimental data from patent US20210154472A1, “ELECTRICALLY RESPONSIVE, NANOPATTERNED SURFACE FOR TRIGGERED INTRACELLULAR DELIVERY OF BIOLOGICALLY ACTIVE MOLECULES” (Yissum Research Development Company of the Hebrew …, priority 2019, published 2021).

Tested on: NIH3T3 fibroblast cells
Experiment: Dox internalization in cells incubated in Dox solution (FIG. 7)
Type: cell-based, mice
Conditions: cells incubated 24 and 36 h in 17 μM Dox solution
Procedure: FIGS. 7A-D provide (A,B) Overlaid optical microscopy and fluorescence images (λex=481 nm) showing extent of Dox internalization in NIH3T3 fibroblast cells after 24 and 36 h incubation in 17 μM Dox solution (for comparison, the Dox concentration that was released from 1-cm^2 nano-patterned PEM to 1-mL solution was ˜14 μM as shown in FIG. 4F). Cells were cultured for 2 days prior to incubation.

COc1cccc2c1C(=O)c1c(O)c3c(c(O)c1C2=O)C[C@@](O)(C(=O)CO)C[C@@H]3O[C@H]1C[C@H](N)[C@H](O)[C@H](C)O1 [Dox, doxorubicin]
time for the drug to penetrate the cell membrane, versus release from PEM: much longer time was needed
